Structures are written as SMILES. Activity calls are given as the source filed them. The rule behind the calls is not given here.

Assay [1] deals with T1, Peroxisome proliferator-activated receptor alpha (Homo sapiens) (UniProt Q07869).
T1 sequence (whole entry): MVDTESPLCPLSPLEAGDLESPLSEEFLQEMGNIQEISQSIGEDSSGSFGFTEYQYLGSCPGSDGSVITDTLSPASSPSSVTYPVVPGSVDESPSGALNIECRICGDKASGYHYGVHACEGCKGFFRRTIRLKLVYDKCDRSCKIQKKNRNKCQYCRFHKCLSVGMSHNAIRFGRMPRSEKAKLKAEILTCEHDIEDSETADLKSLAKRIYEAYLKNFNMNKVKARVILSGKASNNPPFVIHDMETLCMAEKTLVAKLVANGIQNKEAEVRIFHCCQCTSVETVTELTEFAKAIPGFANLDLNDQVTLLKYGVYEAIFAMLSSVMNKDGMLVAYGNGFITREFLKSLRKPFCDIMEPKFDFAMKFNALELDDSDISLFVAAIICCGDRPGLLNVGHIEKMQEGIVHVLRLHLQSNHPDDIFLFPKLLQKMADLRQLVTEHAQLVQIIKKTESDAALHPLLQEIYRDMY
The assay is described as follows: Agonist activity at GAL4-DBD fused human PPARalpha-LBD (159 to 468 residues) expressed in human HepG2 cells at 0.1 to 20 uM after 24 hrs by dual luciferase reporter gene assay. The format is cell-based.

For assay [2], the target named is T2, Peroxisome proliferator-activated receptor delta (Homo sapiens) (UniProt Q03181).
T2 sequence (whole entry): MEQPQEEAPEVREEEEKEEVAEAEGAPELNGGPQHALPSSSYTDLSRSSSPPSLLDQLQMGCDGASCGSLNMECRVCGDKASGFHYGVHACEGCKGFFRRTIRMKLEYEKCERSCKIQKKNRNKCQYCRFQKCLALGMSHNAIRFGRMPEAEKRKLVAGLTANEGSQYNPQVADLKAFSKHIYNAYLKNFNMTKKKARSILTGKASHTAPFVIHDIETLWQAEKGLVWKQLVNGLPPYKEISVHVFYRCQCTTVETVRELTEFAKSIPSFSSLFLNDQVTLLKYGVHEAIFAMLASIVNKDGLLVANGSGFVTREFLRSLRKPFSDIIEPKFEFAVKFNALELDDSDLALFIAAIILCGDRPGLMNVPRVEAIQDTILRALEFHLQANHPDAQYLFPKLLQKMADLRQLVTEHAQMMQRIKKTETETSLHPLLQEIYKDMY
Description: Agonist activity PPARbeta/delta in human MCF7 cells assessed as induction of ANGPTL4 mRNA expression at 10 uM incubated for 24 hrs by qRT-PCR method. The format is cell-based. For orientation: Quantitative PCR measures a nucleic acid by following its amplification.

Assay [3] deals with HepG2. Description: Upregulation of ANGPTL4 mRNA expression in human HepG2 cells transfected with PPARbeta/delta siRNA at 10 uM after 24 hrs by qRT-PCR method. The format is functional, cell-based.
The target of assay [4] is T2, Peroxisome proliferator-activated receptor delta (Homo sapiens). The assay is described as follows: Agonist activity at full length human N-terminal Myc-tagged PPARbeta/delta expressed in human HepG2 cells coexpressing RXRalpha assessed as transcriptional activation of PPRE incubated for 24 hrs by dual luciferase reporter gene assay. Format: cell-based. (Reporter assays use an easily measured gene product as a stand-in for the process of interest.)

Assay [5] has as its target T3, Peroxisome proliferator-activated receptor gamma (Homo sapiens) (UniProt P37231).
T3 sequence (whole entry): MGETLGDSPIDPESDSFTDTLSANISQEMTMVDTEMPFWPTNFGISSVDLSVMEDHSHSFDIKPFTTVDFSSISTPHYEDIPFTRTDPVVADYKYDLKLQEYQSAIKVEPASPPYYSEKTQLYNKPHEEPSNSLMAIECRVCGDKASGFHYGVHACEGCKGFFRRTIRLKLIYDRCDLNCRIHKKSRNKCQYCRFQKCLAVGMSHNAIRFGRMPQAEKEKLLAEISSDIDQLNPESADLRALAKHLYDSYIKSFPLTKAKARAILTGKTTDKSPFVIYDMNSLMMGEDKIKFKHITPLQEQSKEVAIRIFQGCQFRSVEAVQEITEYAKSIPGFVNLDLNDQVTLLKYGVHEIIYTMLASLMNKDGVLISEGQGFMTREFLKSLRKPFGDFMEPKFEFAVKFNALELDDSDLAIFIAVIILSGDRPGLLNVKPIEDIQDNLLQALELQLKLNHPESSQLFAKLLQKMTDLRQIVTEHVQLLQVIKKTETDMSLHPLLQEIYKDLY
Description: Agonist activity at GAL4-DBD fused human PPARgamma-LBD (157 to 475 residues) expressed in human HepG2 cells at 0.1 to 20 uM after 24 hrs by dual luciferase reporter gene assay. Format: cell-based.

The target in assay [6] is T2, Peroxisome proliferator-activated receptor delta (Homo sapiens). The assay is described as follows: Agonist activity at PPARbeta/delta in human HepG2 cells assessed as induction of ANGPTL4 mRNA expression incubated for 24 hrs by qRT-PCR method. Format: cell-based.
Assay [7] shares this target. Description: Agonist activity PPARbeta/delta in human PC3 cells assessed as induction of ANGPTL4 mRNA expression at 10 uM incubated for 24 hrs by qRT-PCR method. The format is cell-based.
Assay [8] has as its system HepG2. The assay is described as follows: Induction of PPRE transcriptional activation in human HepG2 cells at 10 uM incubated for 24 hrs by dual luciferase reporter gene assay. The format is functional, cell-based.
Assay [9] deals with T2, Peroxisome proliferator-activated receptor delta (Homo sapiens). Description: Agonist activity at GAL4-DBD fused human PPARbeta/delta-LBD (136 to 441 residues) expressed in human HepG2 cells after 24 hrs by dual luciferase reporter gene assay. Format: cell-based.
Assay [10] has the same target. The assay is described as follows: Agonist activity at GAL4-DBD fused human PPARbeta/delta-LBD (136 to 441 residues) expressed in human HepG2 cells at 10 uM by luciferase reporter gene based mammalian one hybrid assay. The format is cell-based.

On to `COc1cnc(CCn2ccc3c4n(c(=O)c(=O)cc2-4)c2ccccc32)c2c1c1ccccc1n2OC`, for which the result (in assay [1]; in the assay with HepG2 [3]; in assay [7]) was inactive. The outcome (in [2]; in assay [5]; in the assay with HepG2 [8]) was Active. Besides, the Activity entry in [4], in [6] and in assay [9] was “Dose-dependent effect” throughout.
Turning to `CCCCn1ccc2c3n(c(=O)c(=O)cc1-3)c1ccccc21`, the result in assay [10] was inactive.
With `Cc1cc(SCc2sc(-c3ccc(C(F)(F)F)c(F)c3)nc2C)ccc1OCC(=O)O`, the result in the assay on HepG2 [3] was inactive. The outcome in the assay with HepG2 [8] was Active.
As to `COc1cccc2c1[nH]c1c(CCn3ccc4c5n(c(=O)c(=O)cc3-5)c3ccccc43)ncc(OC)c12`, the outcome in assay [10] was inactive.

(Values after ChEMBL document CHEMBL4425093, “Picrasidine N Is a Subtype-Selective PPARβ/δ Agonist” (J Nat Prod, 2016).)
